Patent US20230139826A1 (NONO INC., priority 2020, published 2023)
Residues, ends and D or L forms follow the SMILES beside them.

Columns and labels:
acute ischemic stroke = assay: ESCAPE-NA1 trial: treatment emergent serious adverse events; assay type: in vivo, human
Source text: The primary outcome was good outcome as defined by a score of 0-2 on the modified Rankin scale (mRS) (range, 0 [no symptoms] to 6 [death]) for the assessment of neurologic functional disability^2 assessed in person or, if an in-person visit was not possible, by telephone, at 90 days after randomization by personnel certified in the scoring of the mRS. Secondary efficacy outcomes were neurological outcome as defined by the NIHSS of 0-2, functional independence in activities of daily living as defined by a Barthel Index score of ≥95, excellent functional outcome as defined by a score of 0-1 on the mRS and mortality rates. Tertiary outcomes included assessments of stroke volumes on 24-hour imaging (MR or CT brain). Prespecified safety outcomes were all serious adverse events and mortality. Imaging interpretation was conducted at a central core laboratory and clinical data were verified by independent monitors. Infarct volumes were measured by summation of manual planimetric demarcation of infarct on axial imaging (636/1099 (57.9%) on CT and 463/1099 (42.1%) on MRI).
The safety population included all patients who received any amount of study drug (n=1101). There were no differences in important safety outcomes. (Table 3).

[1] = PK dose-separation study in cynomolgus macaques; assay type: in vivo, cynomolgus macaques (Macaca fascicularis); settings: macaque
Method: We conducted further PK studies to probe the necessary dose-separation interval to mitigate degradation. These studies were conducted in cynomolgus macaques (Macaca fascicularis) to maximize their relevance to humans. Nerinetide was given as a 10-minute intravenous infusion at a dose of 2.6 mg/kg. This dosing regimen was neuroprotective in macaques exposed to stroke by LVO (Cook et al., Nature 483, 213-217 (2012)) and was used in both the Phase 2 ENACT trial (Lancet Neurol 11, 942-950 (2012)) and the ESCAPE-NA1 trial (Lancet 395, 878-887 (2020)). We examined the scenarios in which alteplase administration was started simultaneously with the nerinetide infusion start, at the end of the 10-minute nerinetide infusion, or 10 minutes after the end of nerinetide infusion. Alteplase (1 mg/kg) was administered through a separate intravenous line as a 10% bolus, followed by an infusion of the remaining 90% over 1 hour, as per its clinical use.

[2] = In-vitro peptide degradation assay in human plasma with rt-PA or TNK
Method: To determine nerinetide stability in the presence of rt-PA in plasma, we use an in-vitro peptide content analysis by HPLC. In brief, Nerinetide or D-Tat-L-2B9c were spiked into rat or human plasma at a concentration of 65 ug/ml. rt-PA was added after the baseline time-point was collected, at the specified concentrations. rt-PA administration followed the clinical dosing approach [10% bolus dose followed by 60-mins infusion (90% of the dose)], using a Harvard apparatus pump. Sample collection following IV bolus was performed at 5 min, 15 min, 30 min and 45 min post-dose. At each time point, approximately 100 uL of plasma was collected from each vial using a fresh syringe. Plasma was then collected and stored at -80° C. until analyzed.
Nerinetide or D-Tat-L2B9c was extracted by precipitation with 1M perchloric acid. All analyses were performed on an Agilent 1260 Infinity Quaternary LC System (Agilent Technologies, Santa Clara, Calif., USA) and on a 25 cm [YMAA12S052546WT] C-18 RP-HPLC column (Agilent Technologies, Santa Clara, Calif., USA). The column was equilibrated with 10% acetonitrile with 0.1% TFA at 40° C. The eluent flow was 1.5 ml/min (gradient from 10% to 35% acetonitrile in 0.1% TFA) The UV trace was recorded at 220 nm. Concentrations of nerinetide or D-Tat-L-2B9c were derived from calibration standards obtained by spiking the agent into plasma.

[3] = alteplase started at the end of the nerinetide infusion

## CC[C@H](C)[C@H](NC(=O)[C@H](CO)NC(=O)[C@H](CO)NC(=O)[C@H](CC(C)C)NC(=O)[C@H](CCCCN)NC(=O)[C@H](CCCN=C(N)N)NC(=O)[C@H](CCCN=C(N)N)NC(=O)[C@H](CCCN=C(N)N)NC(=O)[C@H](CCC(N)=O)NC(=O)[C@H](CCCN=C(N)N)NC(=O)[C@H](CCCN=C(N)N)NC(=O)[C@H](CCCCN)NC(=O)[C@H](CCCCN)NC(=O)[C@H](CCCN=C(N)N)NC(=O)CNC(=O)[C@@H](N)Cc1ccc(O)cc1)C(=O)N[C@@H](CCC(=O)O)C(=O)N[C@@H](CO)C(=O)N[C@@H](CC(=O)O)C(=O)N[C@H](C(=O)O)C(C)C [Nerinetide] (H-YGRKKRRQRRRKLSSIESDV-OH)
Acute ischemic stroke; nerinetide n = 547
  Angioedema, patients number (proportion): 1 (0.2%)
  Congestive cardiac failure, patients number (proportion): 9 (1.6%)
  Deep vein thrombosis/pulmonary embolism, patients number (proportion): 3 (0.5%)
  Hives/Urticaria/Pruritis, number of patients: 0
  Hypotension, patients number (proportion): 7 (1.3%)
  Ischaemic stroke (new onset/recurrent), patients number (proportion): 18 (3.3%)
  Pneumonia, patients number (proportion): 25 (4.6%)
  Stroke-in-evolution (progression), patients number (proportion): 36 (6.6%)
  Symptomatic ICH, patients number (proportion): 19 (3.5%)
  Urinary tract infection, patients number (proportion): 8 (1.5%)
Acute ischemic stroke; nerinetide vs placebo
  Angioedema, RR (95% CI) unadjusted: 1.01 (0.06-16.1)
  Any serious adverse Event, RR (95% CI) unadjusted: 0.92 (0.79-1.09)
  Congestive cardiac failure, RR (95% CI) unadjusted: 2.28 (0.71-7.36)
  Deep vein thrombosis/pulmonary embolism, RR (95% CI) unadjusted: 0.38 (0.1-1.42)
  Hypotension, RR (95% CI) unadjusted: 7.09 (0.88-57.4)
  Ischaemic stroke (new onset/recurrent), RR (95% CI) unadjusted: 0.91 (0.49-1.70)
  Pneumonia, RR (95% CI) unadjusted: 1.49 (0.81-2.73)
  Stroke-in-evolution (progression), RR (95% CI) unadjusted: 0.85 (0.55-1.30)
  Symptomatic ICH, RR (95% CI) unadjusted: 0.80 (0.44-1.45)
  Urinary tract infection, RR (95% CI) unadjusted: 1.15 (0.42-3.17)
Acute ischemic stroke; patients treated with nerinetide
  rates of adverse events compared with placebo: no significant differences
Acute ischemic stroke; safety population, nerinetide n = 547
  Any serious adverse Event, patients number (proportion): 181 (33.1%)
[1]; alteplase 10 minutes after the end of the 10-min nerinetide infusion
  degradation of Cmax or AUC by alteplase: eliminated degradation of Cmax or AUC
[1]; [3]
  reduction in the AUC of nerinetide: 32.3%
  reduction of the Cmax of nerinetide: 23.1%
[1]; alteplase started simultaneously
  reduction in the AUC of nerinetide: 53.9%
[1]; nerinetide 2.6 mg/kg 10-minute infusion, alteplase 1 mg/kg started simultaneously
  reduction of the Cmax of nerinetide: 47.4%
[2]; TNK 6.25 ug/ml
  elimination in human plasma with tenecteplase (TNK): rapid elimination
[2]; absence of alteplase
  stability alone in human plasma: stable
[2]; rt-PA 135 ug/ml
  degradation in human plasma with alteplase: rapid degradation
